# Tested on: 3E7 Fab
# Assay: Dissociation of [125I]Fab from fusion phage clones
# Type: binding, mouse
# Parameters: key to Dissociation t1/2 (minutes): **: indicates that initial binding was not detected
# Settings: [125I]Fab dissociating from the phage clone bearing the peptide; 4° C; excess free YGGFL added
# Experimental: An assay employing the anti-phage antisera was developed to determine the rate of dissociation of [^125 I]Fab from individual phage isolates. Individual fusion phase isolates were amplified in a 5 ml liquid culture of E. coli K91 cells and phage particles were isolated and quantitated as described above. In 1 ml microtiter minitubes, 25 μl of TBS containing approximately 2×10^9 infectious phage particles were incubated with […] of TBS/0.1% BSA containing 40,000 cpm of [^125 I]Fab for 10 minutes. Anti-phage antisera (25 μl of 1:1000 dilution in PBS/0.1%BSA) and staph A particles coated with goat anti-mouse IgG (25 μl of Tachisorb diluted eight-fold in TBS/0.1% BSA) were then added. Dissociation was initiated after 2 hours further incubation at 4° C. […] Filter bound radioactivity was determined by gamma counting. […] The time corresponding to a 50% reduction of initially bound [^125 I]Fab was determined by linear regression of a semi-logarithmic plot of amount bound vs. time.
Substance,Dissociation t1/2,Dissociation t1/2 (minutes)
YGGLVR: hexapeptide isolated with 50 pM Fab,0.50 min,
YGRFFH: hexapeptide isolated with 50 pM Fab,,**
YGGLSM: hexapeptide isolated with 50 pM Fab,0.96 min,
YGGFSP: hexapeptide isolated with 50 pM Fab,,**
YGFWSN: hexapeptide isolated with 50 pM Fab,7.4 min,
YGAFFQ: hexapeptide isolated with 50 pM Fab,13.4 min,
YGSFSL: hexapeptide isolated with 50 pM Fab,0.43 min,
YGVFSR: hexapeptide isolated with 50 pM Fab,2.8 min,
YGGLRH: hexapeptide isolated with 50 pM Fab,,**
YGAFGG: hexapeptide isolated with 50 pM Fab,5.0 min,
YGSFMA: hexapeptide isolated with 50 pM Fab,,**
YGYWSL: hexapeptide isolated with 50 pM Fab,15.6 min,
YGGFLT: hexapeptide isolated with 50 pM Fab,17.9 min,

# Source: patent publication US5432018A, “Peptide library and screening systems” (Affymax Technologies N.V., priority 1991, dated 1995)
